Reference: US20230058623A1, “NOVEL HETEROARYL-TRIAZOLE COMPOUNDS AS PESTICIDES” (Bayer Aktiengesellschaft, priority 2019, published 2023)

What was measured:
Format in all cases: in vivo
[1] = test system: green peach aphid (Myzus persicae); experiment: Myzus persicae spray test; details: foliar, 120 h, after 5 days, Chinese cabbage leaf disks; for mortality at 500 g/ha: application rate 500 g/ha; for mortality at 100 g/ha: application rate 100 g/ha, read-out: activity (mortality)
How it was run: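 Chinese cabbage leaf disks infested with all aphid instars were sprayed with compound diluted in water containing emulsifier (1000 ppm). Mortality (%) was scored after 5 days, 100% meaning all aphids killed.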

[2] = test system: green peach aphid (Myzus persicae); experiment: Myzus persicae oral test; details: 120 h, read-out: activity (mortality)
How it was run: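 Compound was dissolved at 1 part by weight in 100 parts acetone, then diluted with water to test concentration and combined with IPL41 insect medium (33%+15% sugar). A mixed aphid population fed on this through a parafilm seal, and mortality (%) was scored after 5 days.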

[3] = test system: larvae of the southern green stink bug (Nezara viridula); experiment: Nezara viridula spray test; details: 96 h, after 4 days, barley plants; for mortality at 500 g/ha: application rate 500 g/ha, read-out: activity (mortality); for mortality at 100 g/ha: application rate 100 g/ha
How it was run: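 Barley plants sprayed with the active compound in emulsifier-containing water, then infested with stink bug larvae. Mortality scored in % after 4 days, with 100% meaning all insects killed.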

[4] = test system: adult unfed cat fleas (Ctenocephalides felis); experiment: Ctenocephalides felis oral test; details: 48 h, read-out: activity (mortality)
Experimental: Ctenocephalides felis—Oral Test
Solvent: dimethyl sulfoxide
To produce a suitable preparation of active compound, 10 mg of active compound are dissolved in 0.5 mL solvent, and the concentrate is diluted with citrated cattle blood to the desired concentration.
Approximately 20 adult unfed cat fleas (Ctenocephalides felis) are placed in a flea chamber whose top and bottom is covered with gauze. A chamber whose bottom is sealed with parafilm, is filled with the blood-compound solution and placed on top of the flea chamber, so that the fleas can suck the blood. The blood chamber is heated to 37° C. whereas the flea chamber is kept at room temperature.
After 2 days mortality in % is determined. 100% means all the fleas have been killed; 0% means none of the fleas have been killed.

[5] = test system: larvae of the banded cucumber beetle (Diabrotica balteata); experiment: Diabrotica balteata spray test; details: 168 h, after 7 days, wheat seeds, read-out: activity (efficacy: seedlings grown); for pest or weed control at 32 µg/disc, 100 g/ha: application rate 100 g/ha (=32 μg/well)
How it was run: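 Wheat seeds germinated 1 day on agar were sprayed with compound diluted in water with 1000 ppm emulsifier, then infested with 10-20 Diabrotica balteata larvae. Efficacy in % scored after 7 days: 100% = seedlings grown as untreated, uninfected control; 0% = no seedlings grown.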

[6] = test system: adult mosquitoes Anopheles funestus strain FUMOZ-R; experiment: Anopheles funestus test (ANPHFU surface treatment & contact assay); details: surface concentration 20 mg/m^2, exposure 30 minutes, 24 hours after contact, read-out: efficacy (mortality)
Experimental: Anopheles funestus Test (ANPHFU Surface Treatment & Contact Assay)
Solvent: Aceton+2000 ppm rapeseed oil methyl ester (RME)
In order to produce a sufficient, active ingredient containing solution it is necessary to solve the test compound in the solvent-mix (acetone at 2 mg/ml/RME 2000 ppm). This solution is pipetted onto a glazed tile and after evaporation of the acetone, adult mosquitoes of the species Anopheles funestus strain FUMOZ-R (Hunt et al., Med. Vet. Entomol. 2005 September; 19(3): 271-275) are placed onto the dried surface. The exposure time is 30 minutes.
Mortality in percent (%) is determined 24 hours after contact of the insects to the treated surface. 100% mortality means that all tested insects are dead, whereas 0% means that no insect died.

[7] = test system: adult engorged female ticks (Rhipicephalus microplus); experiment: Rhipicephalus (Boophilus) microplus injection test; details: 168 h, application rate 4 μg/tick, egg deposition after 7 days, read-out: activity (efficacy: infertile eggs)
How it was run: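 Efficacy is scored from egg fertility, with 100% meaning every egg infertile and 0% every egg fertile. Five engorged females per test received 1 μL DMSO solution abdominally. Eggs of unclear fertility were kept until hatching, about 42 days.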

[8] = test system: adult flies Musca domestica strain WHO-N; experiment: Musca domestica test (MUSCDO surface treatment & contact assay); details: 24 hours after contact, read-out: efficacy (mortality); for mortality at 20 mg/m2: surface concentration 20 mg/m^2, exposure 30 minutes
How it was run: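 Compound dissolved at 2 mg/ml in acetone with 2000 ppm RME, applied to glazed tile and dried; adult flies exposed on the surface for 30 min. Percent mortality scored 24 h after contact.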

[9] = test system: fall armyworm larvae (Spodoptera frugiperda); experiment: Spodoptera frugiperda spray test; details: 168 h, application rate 100 g/ha, after 7 days, maize leaf sections
How it was run: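 Caterpillars are placed on sprayed, dried maize leaf sections. Sprays contain compound diluted in water with emulsifier at 1000 ppm; mortality in % is determined 7 days later.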

[10] = test system: adult cat fleas (Ctenocephalides felis); experiment: Ctenocephalides felis in-vitro contact test, adult cat flea; details: application rate 5 μg/cm^2 (=500 g/ha), after 48 hours, read-out: activity (efficacy: fleas dead or moribund)
How it was run: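 Acetone solutions of compound were coated onto inner walls of glass tubes (900 ppm giving 5 μg/cm^2) and dried; 5-10 adult C. felis were then held 48 h at room temperature. Efficacy = % fleas dead or moribund, judged by inability to escape a 45-50° C heating plate within 5 min.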

[11] = test system: brown planthopper (Nilaparvata lugens); experiment: Nilaparvata lugens spray test; details: 96 h, after 4 days, rice plants; for mortality at 500 g/ha: application rate 500 g/ha
Experimental: Nilaparvata lugens—Spray Test
To produce a suitable preparation of active compound, 1 part by weight of active compound is mixed with the stated amount of solvents and is diluted with water, containing an emulsifier concentration of 1000 ppm, to the desired concentration. Further test concentrations are prepared by dilution with emulsifier containing water.
Rice plants (Oryza sativa) are sprayed with a preparation of the active ingredient of the desired concentration and the plants are infested with the brown planthopper (Nilaparvata lugens).
After 4 days mortality in % is determined. 100% means all planthoppers have been killed and 0% means none of the planthoppers have been killed.

[12] = test system: Rhipicephalus (Boophilus) microplus larvae (strain Parkhurst, resistant against synthetic pyrethroids); experiment: Rhipicephalus (Boophilus) microplus in-vitro contact test, larval cattle tick; details: after 48 hours, read-out: activity (efficacy: larvae dead or moribund); for pest or weed control at 1 µg/cm2, 100 g/ha: application rate 1 μg/cm^2 (=100 g/ha); for pest or weed control at 5 µg/cm2, 500 g/ha: application rate 5 μg/cm^2 (=500 g/ha)
How it was run: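 Acetone solutions were coated onto glass tube walls, giving 5 μg/cm^2 at 900 ppm. Once dry, 20–50 pyrethroid-resistant Parkhurst larvae were added per tube and held 48 h at 27 °C and 85% RH. Efficacy was scored by negative geotaxis as the percentage of dead or moribund larvae.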

[13] = test system: adult mosquitoes Aedes aegypti strain MONHEIM; experiment: Aedes aegypti test (AEDSAE surface treatment & contact assay); details: 24 hours after contact, read-out: efficacy (mortality); for mortality at 20 mg/m2: surface concentration 20 mg/m^2, exposure 30 minutes
How it was run: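 Compound in acetone (2 mg/ml) with 2000 ppm RME dried onto glazed tile; adults exposed to the treated surface for 30 min. Percent mortality scored 24 h after contact.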

[14] = test system: adult brown dog ticks (Rhipicephalus sanguineus); experiment: Rhipicephalus sanguineus in-vitro contact test, adult brown dog ticks; details: application rate 5 μg/cm^2 (=500 g/ha), after 48 hours, read-out: activity (efficacy: ticks dead or moribund)
How it was run: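 Efficacy (%) reflects the fraction of adult ticks dead or moribund after 48 h of contact with a dried acetone film on tube walls at 5 μg/cm^2 (from 900 ppm). Moribund status was assessed by inability to climb away from heat at 45-50° C.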

[15] = surface concentration 4 mg/m^2, exposure 30 minutes

Structure (SMILES)	mortality at 4 ppm [2] [%]	mortality at 500 g/ha [3] [%]	pest or weed control at 32 µg/disc, 100 g/ha [5] [%]	mortality at 20 mg/m2 [8] [%]	mortality at 100 g/ha [9] [%]	pest or weed control at 5 µg/cm2 [10] [%]	mortality at 500 g/ha [11] [%]	mortality at 100 g/ha [1] [%]	pest or weed control at 1 µg/cm2, 100 g/ha [12] [%]	pest or weed control at 5 µg/cm2, 500 g/ha [12] [%]	pest or weed control at 5 µg/cm2, 500 g/ha [14] [%]	other results
CC(NC(=O)c1cc(C(F)(F)F)cc(C(F)(F)F)c1)c1nc(C(F)F)nn1-c1ccc(C(=O)N2CCOCC2)cn1 (racemic) [Example I-83, N-[1-[5-(Difluoromethyl)-2-[5-(morpholine-4-carbonyl)-2-pyridyl]-1,2,4-triazol-3-yl]ethyl]-3,5-bis(trifluoromethyl)benzamide]	100	100	100	80 to 100	100							mortality at 500 g/ha [1]: 90%; mortality at 20 ppm [2]: 100%; mortality at 100 ppm [4]: 100%; pest or weed control at 160 µg/disc, 500 g/ha ([5]; application rate 500 g/ha (=160 μg/well)): 100%; mortality at 20 mg/m2 [6]: 80 to 100%; pest or weed control at 0.004 mg [7]: 100%
C[C@H](NC(=O)c1cc(Cl)cc(S(C)(=O)=O)c1)c1ncnn1-c1ccc(C(=O)N2C[C@H](C)O[C@@H](C)C2)cn1 [Example I-122]	100	100				80	90					mortality at 500 g/ha [1]: 90%; mortality at 100 g/ha [3]: 90%
CCc1nc([C@H](C)NC(=O)c2cc(Br)cc(OC(F)(F)F)c2)n(-c2ccc(C(=O)N3CCOCC3)cn2)n1 [Example I-134]		100	100		100		100	90				
CCc1nc([C@H](C)NC(=O)c2cc(C(F)(F)F)cc(C(F)(F)F)c2)n(-c2ccc(C(=O)N3CCOCC3)cn2)n1 [Example I-131]		100	100	80 to 100	100	100	100	90	100	100	100	mortality at 20 mg/m2 [13]: 80 to 100%
C[C@H](NC(=O)c1cc(C(F)(F)F)cc(S(C)(=O)=O)c1)c1ncnn1-c1ccc(C(=O)N2CCOCC2)cn1 [Example I-102]	100		100		100	80		90				mortality at 100 g/ha ([11]; application rate 100 g/ha): 90%; mortality at 100 g/ha [3]: 100%; mortality at 4 mg/m2 [13, 15]: 80 to 100%; mortality at 20 mg/m2 [13]: 80 to 100%
Cc1nc([C@H](C)NC(=O)c2cc(C(F)(F)F)cc(C(F)(F)F)c2)n(-c2cnc(C(=O)N3C[C@@H](C)O[C@@H](C)C3)cn2)n1 [Example I-138]		100	100	80 to 100	100	100	100	90	100	100	100	
C[C@H](NC(=O)c1cc(C(F)(F)F)cc(C(F)(F)F)c1)c1ncnn1-c1ccc(C(=O)N2CCN(C)C(=O)C2)cn1 [Example I-79]	100	100		80 to 100	100		100					mortality at 20 mg/m2 [6]: 80 to 100%; mortality at 20 mg/m2 [13]: 80 to 100%
C[C@H](NC(=O)c1cc(C(F)(F)F)cc(C(F)(F)F)c1)c1ncnn1-c1ccc(C(=O)N2CC(C)(C)OC(C)(C)C2)cn1 [Example I-77]		100	100	80 to 100	100	100	100		100	100	80	
C[C@H](NC(=O)c1cc(C(F)(F)F)cc(C(F)(F)F)c1)c1ncnn1-c1ccc(C(=O)N2CC(=O)NC(=O)C2)cn1 [Example I-80]		100					90					
CCc1nc([C@H](C)NC(=O)c2cc(C(F)(F)F)cc(C(F)(F)F)c2)n(-c2ccc(C(=O)N3C[C@@H](C)O[C@@H](C)C3)cn2)n1 [Example I-130]		100	100	80 to 100	100	100	100	90	100	100	100	mortality at 4 mg/m2 [8, 15]: 80 to 100%
Cc1nc([C@H](C)NC(=O)c2cc(C(F)(F)F)cc(C(F)(F)F)c2)n(-c2ccc(C(=O)N3CC(C)(C)OC(C)(C)C3)cn2)n1 [Example I-78]		100			100		100		100	100	100	
